According to PMC10983004 (Journal of Medicinal Chemistry, 2024):

What was measured:
TET2CD = TET2CD (Homo sapiens, UniProt Q6N021)
KDM2A = biological target: T1, KDM2A (Homo sapiens, UniProt Q9Y2K7); conditions: read-out: Ki (calculated) KDM2A; Cheng-Prussoff from reported IC50; ref 75 (SI ref 4)
T1 sequence (Q9Y2K7 1-1162): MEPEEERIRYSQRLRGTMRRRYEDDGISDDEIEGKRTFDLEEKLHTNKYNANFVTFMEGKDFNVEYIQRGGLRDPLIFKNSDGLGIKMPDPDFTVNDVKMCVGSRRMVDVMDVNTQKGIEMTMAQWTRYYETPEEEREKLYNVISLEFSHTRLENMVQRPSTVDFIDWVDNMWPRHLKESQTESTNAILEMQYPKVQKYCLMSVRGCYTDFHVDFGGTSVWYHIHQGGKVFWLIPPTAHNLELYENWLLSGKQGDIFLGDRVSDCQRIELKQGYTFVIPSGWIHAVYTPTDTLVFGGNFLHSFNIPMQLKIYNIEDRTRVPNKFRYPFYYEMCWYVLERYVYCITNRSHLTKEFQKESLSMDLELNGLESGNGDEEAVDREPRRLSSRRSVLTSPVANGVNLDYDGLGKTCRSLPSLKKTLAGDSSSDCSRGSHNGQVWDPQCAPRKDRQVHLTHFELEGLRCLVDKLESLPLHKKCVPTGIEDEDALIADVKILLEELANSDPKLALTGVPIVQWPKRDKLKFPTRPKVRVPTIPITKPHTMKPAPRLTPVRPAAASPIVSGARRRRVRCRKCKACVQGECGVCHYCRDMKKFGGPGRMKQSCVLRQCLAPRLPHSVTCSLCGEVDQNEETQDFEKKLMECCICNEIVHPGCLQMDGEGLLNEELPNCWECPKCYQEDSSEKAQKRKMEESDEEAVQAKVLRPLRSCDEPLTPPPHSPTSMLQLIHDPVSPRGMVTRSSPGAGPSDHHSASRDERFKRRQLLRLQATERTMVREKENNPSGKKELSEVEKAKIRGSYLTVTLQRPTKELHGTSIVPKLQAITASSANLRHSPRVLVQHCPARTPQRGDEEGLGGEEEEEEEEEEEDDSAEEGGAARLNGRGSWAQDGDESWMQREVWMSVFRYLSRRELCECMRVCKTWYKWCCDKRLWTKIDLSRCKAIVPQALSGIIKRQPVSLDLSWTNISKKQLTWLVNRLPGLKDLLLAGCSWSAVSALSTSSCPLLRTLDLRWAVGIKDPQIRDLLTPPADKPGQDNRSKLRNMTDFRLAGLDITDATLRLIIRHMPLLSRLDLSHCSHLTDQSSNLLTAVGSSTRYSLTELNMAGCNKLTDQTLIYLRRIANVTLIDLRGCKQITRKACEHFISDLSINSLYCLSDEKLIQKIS

KDM6A [1] = biological target: T2, KDM6A (Homo sapiens, UniProt O15550); conditions: read-out: Ki (calculated) KDM6A; Cheng-Prussoff from reported IC50; ref SI 8
T2 sequence (O15550 whole entry): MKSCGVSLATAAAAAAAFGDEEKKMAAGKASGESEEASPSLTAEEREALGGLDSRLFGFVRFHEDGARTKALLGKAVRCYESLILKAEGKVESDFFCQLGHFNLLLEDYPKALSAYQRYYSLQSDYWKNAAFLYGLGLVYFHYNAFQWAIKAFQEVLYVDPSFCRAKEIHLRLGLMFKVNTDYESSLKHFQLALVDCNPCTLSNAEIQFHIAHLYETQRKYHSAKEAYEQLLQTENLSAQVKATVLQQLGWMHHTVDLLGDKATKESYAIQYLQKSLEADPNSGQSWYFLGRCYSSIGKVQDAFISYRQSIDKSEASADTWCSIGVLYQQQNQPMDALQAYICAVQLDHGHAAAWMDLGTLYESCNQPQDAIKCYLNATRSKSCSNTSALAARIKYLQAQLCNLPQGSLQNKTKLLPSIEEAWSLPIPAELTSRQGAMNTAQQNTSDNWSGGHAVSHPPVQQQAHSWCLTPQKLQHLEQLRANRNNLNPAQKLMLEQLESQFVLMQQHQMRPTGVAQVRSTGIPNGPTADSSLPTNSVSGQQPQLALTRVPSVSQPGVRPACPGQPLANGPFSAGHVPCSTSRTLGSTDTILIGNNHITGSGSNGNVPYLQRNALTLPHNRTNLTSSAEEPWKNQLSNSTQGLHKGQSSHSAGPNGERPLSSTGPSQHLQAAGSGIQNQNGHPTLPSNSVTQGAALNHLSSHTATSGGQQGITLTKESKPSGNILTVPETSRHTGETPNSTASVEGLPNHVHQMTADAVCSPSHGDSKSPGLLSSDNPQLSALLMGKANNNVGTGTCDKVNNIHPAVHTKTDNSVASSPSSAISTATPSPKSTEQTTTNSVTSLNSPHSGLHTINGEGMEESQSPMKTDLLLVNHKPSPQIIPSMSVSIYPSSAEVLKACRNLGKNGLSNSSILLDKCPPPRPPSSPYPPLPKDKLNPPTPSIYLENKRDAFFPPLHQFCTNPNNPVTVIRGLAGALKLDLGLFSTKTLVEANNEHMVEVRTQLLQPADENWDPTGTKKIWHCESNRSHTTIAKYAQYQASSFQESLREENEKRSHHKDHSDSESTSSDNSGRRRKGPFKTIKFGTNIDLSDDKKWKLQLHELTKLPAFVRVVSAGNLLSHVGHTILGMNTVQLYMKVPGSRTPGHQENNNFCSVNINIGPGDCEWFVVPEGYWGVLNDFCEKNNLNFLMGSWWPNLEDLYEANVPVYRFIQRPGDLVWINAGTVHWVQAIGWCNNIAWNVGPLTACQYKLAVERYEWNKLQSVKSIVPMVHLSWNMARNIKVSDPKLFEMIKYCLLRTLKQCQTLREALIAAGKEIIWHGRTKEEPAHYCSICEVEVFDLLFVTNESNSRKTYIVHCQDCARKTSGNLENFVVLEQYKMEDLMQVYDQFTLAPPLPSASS

KDM6B [2] = biological target: T3, KDM6B (Homo sapiens, UniProt O15054); conditions: read-out: Ki (calculated) KDM6B; Cheng-Prussoff from reported IC50; ref SI 8
T3 sequence (O15054 whole entry): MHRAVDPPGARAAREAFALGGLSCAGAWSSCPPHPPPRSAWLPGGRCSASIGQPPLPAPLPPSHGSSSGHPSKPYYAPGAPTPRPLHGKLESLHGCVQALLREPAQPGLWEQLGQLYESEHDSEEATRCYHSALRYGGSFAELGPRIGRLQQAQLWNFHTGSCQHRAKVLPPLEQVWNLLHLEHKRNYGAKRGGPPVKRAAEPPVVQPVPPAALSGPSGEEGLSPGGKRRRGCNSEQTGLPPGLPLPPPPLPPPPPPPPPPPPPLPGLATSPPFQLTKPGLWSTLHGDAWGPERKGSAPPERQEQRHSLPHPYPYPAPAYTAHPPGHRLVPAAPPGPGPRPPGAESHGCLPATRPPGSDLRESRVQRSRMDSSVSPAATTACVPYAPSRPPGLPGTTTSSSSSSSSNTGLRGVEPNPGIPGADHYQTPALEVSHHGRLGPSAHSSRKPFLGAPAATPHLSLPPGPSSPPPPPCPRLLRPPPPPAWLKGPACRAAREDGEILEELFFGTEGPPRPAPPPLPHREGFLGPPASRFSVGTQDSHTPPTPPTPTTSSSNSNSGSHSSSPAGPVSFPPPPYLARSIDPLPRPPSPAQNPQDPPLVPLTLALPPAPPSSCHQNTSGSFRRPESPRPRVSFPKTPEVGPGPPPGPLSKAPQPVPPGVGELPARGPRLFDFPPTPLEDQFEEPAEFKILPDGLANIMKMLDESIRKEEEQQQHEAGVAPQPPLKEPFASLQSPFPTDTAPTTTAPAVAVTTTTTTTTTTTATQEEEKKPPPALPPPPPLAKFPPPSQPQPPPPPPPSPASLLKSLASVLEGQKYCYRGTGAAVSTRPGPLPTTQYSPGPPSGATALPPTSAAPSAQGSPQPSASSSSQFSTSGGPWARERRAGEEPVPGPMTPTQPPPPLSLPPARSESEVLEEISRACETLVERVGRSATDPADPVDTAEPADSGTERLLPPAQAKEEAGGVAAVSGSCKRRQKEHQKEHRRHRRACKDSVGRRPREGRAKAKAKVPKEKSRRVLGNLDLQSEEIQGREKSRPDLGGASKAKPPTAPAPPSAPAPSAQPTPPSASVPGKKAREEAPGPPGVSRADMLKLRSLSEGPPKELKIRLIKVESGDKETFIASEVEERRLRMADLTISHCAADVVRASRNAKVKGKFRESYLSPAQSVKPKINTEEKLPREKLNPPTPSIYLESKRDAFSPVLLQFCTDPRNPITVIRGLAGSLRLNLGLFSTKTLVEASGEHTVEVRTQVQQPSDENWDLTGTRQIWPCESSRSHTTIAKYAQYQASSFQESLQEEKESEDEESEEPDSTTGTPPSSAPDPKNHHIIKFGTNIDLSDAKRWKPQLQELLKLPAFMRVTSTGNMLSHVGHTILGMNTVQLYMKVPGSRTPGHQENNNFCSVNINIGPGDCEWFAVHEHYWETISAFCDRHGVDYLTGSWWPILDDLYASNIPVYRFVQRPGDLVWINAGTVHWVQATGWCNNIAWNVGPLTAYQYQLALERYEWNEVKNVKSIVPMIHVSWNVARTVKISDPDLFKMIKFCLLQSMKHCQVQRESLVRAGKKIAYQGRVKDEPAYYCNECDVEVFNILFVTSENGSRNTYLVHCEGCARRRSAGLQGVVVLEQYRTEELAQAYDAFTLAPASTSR

PHD1 = conditions: ref SI 6 (main 76); cited from earlier work
PHD3 = conditions: ref SI 6 (main 76); cited from earlier work
PHD1, PHD2, PHD3 = conditions: RCC4/VHLHA, Hep3B, MCF7; western blot; ref SI 4; cited from earlier work
ABH3 = conditions: U87-MG, U373-MG, HT-1080; western blot; ref SI 11; cited from earlier work
FTO = conditions: NOMO-1, U937, MA9.3ITD; dot blot and LC-MS/MS; ref SI 12; cited from earlier work
BBOX1 = conditions: read-out: IC50 BBOX1; [2OG] 40 µM, enzyme 25 nM; ref SI 4 (main 75); cited from earlier work
KDM4B [3] = biological target: T4, KDM4B (Homo sapiens, UniProt O94953); conditions: read-out: IC50 KDM4B; [2OG] 20 µM; ref SI 8 (main 64); cited from earlier work
T4 sequence (O94953 1-1096): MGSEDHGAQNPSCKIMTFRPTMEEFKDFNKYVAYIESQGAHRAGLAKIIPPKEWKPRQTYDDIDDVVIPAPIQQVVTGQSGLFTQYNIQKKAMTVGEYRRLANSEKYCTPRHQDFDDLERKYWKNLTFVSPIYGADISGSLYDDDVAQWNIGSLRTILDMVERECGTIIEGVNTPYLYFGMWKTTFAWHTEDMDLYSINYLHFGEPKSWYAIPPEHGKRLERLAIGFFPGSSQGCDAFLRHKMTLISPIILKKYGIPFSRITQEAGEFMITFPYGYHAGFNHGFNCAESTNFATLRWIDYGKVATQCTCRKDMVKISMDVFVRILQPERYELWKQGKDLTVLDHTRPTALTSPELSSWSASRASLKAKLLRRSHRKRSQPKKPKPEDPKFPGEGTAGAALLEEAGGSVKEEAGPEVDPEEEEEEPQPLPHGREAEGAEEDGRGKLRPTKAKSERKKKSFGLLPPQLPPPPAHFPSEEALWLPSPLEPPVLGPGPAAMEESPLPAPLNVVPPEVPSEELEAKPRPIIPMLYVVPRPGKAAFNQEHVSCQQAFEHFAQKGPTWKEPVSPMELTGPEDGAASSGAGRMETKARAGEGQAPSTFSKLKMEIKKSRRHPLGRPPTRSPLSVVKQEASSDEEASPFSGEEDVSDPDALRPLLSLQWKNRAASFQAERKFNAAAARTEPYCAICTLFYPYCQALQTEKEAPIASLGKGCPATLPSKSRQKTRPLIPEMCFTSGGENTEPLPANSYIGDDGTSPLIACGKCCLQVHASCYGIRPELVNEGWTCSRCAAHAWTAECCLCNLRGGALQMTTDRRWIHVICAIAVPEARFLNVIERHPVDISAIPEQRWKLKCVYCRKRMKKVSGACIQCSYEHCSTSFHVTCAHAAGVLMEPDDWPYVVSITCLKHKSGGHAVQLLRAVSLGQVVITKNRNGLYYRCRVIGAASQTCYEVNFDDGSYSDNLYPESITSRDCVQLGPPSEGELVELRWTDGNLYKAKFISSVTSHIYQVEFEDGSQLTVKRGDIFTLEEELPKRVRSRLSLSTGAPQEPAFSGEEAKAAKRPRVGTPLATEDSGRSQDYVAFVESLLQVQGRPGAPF

KDM5B [4] = conditions: read-out: IC50 KDM5B (14CO2 radioactive); [2OG] 40 µM; ref SI 8 (main 64); cited from earlier work
KDM6A [5] = biological target: T2, KDM6A; conditions: read-out: IC50 KDM6A; [2OG] […]; ref SI 8 (main 64); cited from earlier work
KDM6B [6] = biological target: T3, KDM6B; conditions: read-out: IC50 KDM6B; [2OG] 200 µM; ref SI 8 (main 64); cited from earlier work
KDM5B [7] = conditions: cited from earlier work
KDM4B [8] = biological target: T4, KDM4B; experiment: biochemical
FIH = conditions: read-out: IC50 FIH; [2OG] 100 µM, enzyme 1,000 nM; ref SI 4 (main 75); cited from earlier work
TET1CD [9] = biological target: T5, TET1CD (Homo sapiens, UniProt Q8NFU7)
T5 sequence (Q8NFU7 1418-2136): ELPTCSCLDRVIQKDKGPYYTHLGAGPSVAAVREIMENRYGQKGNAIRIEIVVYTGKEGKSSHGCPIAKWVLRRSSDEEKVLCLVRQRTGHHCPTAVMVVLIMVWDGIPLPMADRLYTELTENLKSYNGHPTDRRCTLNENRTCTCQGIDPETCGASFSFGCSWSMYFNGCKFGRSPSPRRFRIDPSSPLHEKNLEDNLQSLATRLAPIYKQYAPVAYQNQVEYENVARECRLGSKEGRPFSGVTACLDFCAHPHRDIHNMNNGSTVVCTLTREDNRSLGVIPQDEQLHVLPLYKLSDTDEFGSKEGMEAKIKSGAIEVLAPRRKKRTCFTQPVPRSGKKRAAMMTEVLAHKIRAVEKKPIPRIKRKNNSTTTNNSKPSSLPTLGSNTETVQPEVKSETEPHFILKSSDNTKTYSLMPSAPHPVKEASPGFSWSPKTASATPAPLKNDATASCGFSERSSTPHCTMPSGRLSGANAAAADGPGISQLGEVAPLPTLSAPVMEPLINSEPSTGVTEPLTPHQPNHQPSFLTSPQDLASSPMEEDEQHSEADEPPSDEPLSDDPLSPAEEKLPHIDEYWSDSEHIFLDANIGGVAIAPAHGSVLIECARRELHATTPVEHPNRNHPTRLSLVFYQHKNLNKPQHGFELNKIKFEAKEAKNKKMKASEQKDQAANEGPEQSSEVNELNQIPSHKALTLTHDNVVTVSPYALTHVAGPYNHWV

in vitro = conditions: human, Cellular pCC50 TET1CD, nuclear count by DAPI staining, 24 h; named compound dosed
TET1CD [10] = biological target: T5, TET1CD; experiment: cell-based; conditions: U2OS, read-out: % inhibition of TET1 in cells at […]

Structure (SMILES): O=C(O)CC[C@@H](O)C(=O)O [R-2HG, (2R)-hydroxyglutarate]
- α-value TET2CD (TET2CD): 11 ± 13
- Ki (KDM2A): 74 µM
- Ki (KDM6A [1]): 43 µM
- Ki (KDM6B [2]): 89 µM
- Ki (PHD1): 1150 µM
- Ki (PHD3): 90 µM
- cellular inhibition PHD1–3 (in words) (PHD1, PHD2, PHD3): Putative inhibition of PHD
- cellular inhibition ABH3 (in words) (ABH3): Inhibition
- cellular inhibition FTO (in words) (FTO): Inhibition
- IC50 (BBOX1): 13200 µM
- IC50 (KDM4B [3]): 150 µM
- IC50 (KDM6A [5]): 180 µM
- IC50 (KDM6B [6]): 350 µM
- cellular inhibition KDM5B at 2.0 mM (in words) (KDM5B [7]): No inhibition
- Ki (KDM4B [8]): 53 µM

Structure (SMILES): O=C(O)CC[C@H](O)C(=O)O [S-2HG, S-2-hydroxyglutarate]
- Ki (KDM6A [1]): 43 µM
- Ki (KDM6B [2]): 191 µM
- IC50 (FIH): 189 µM
- IC50 (BBOX1): 142 µM
- IC50 (KDM4B [3]): 450 µM
- IC50 (KDM6A [5]): 180 µM
- IC50 (KDM6B [6]): 750 µM
- cellular inhibition KDM5B at 1.0 mM (in words) (KDM5B [7]; U2OS, 1.0 mM, immunofluorescence, ref SI 10): No inhibition
- Ki (KDM4B [8]): 158 µM

Structure (SMILES): CCCCCCCCOC(=O)[C@H](O)CCC(=O)O [octyl-(R)-2HG, R-Octyl-2-hydroxyglutarate]
- EC50 (TET1CD [9]): ~1500 µM
- Cellular pEC50 TET1CD (TET1CD [9]; U2OS, 24 h with Dox induction, 5hmC IF, named compound dosed, replicates in parentheses): 2.83 ± 0.09 (3)
- CC50 at 24 h (in vitro): > 2000 µM
- inhibition at 1500 µM (TET1CD [10]): ~50%
